Reference: US20190269705A1, “METHODS AND MATERIALS FOR TREATING GRAFT VERSUS HOST DISEASE” (Regents of the University of Minnesota, priority 2017, published 2019)
“Also recorded” adds a separate entry of the source.

How the values were obtained:
stimulated T cells = assay: Oxygen Consumption Rate (Seahorse) of stimulated CD4 T cells; assay type: cell-based, mouse; details: CD4 cells stimulated on CD3/CD28; 1 μM CB839, 5 μM UK5099 injected separately or in combination
Description: Experiments were carried out on Agilent Seahorse XF96 bioanalyzer (Agilent). Briefly, wild type CD4+ cells were isolated as previous and activated for 3 days on CD3/CD28 as previously described, or skewed to Th1 and Th17 subsets as described above. T cells were spun onto XF96 Cell-Tak (BD Bioscience, Cat #: 354240) coated plates and rested in Seahorse XF RPMI 1640 media supplemented with glutamine, sodium pyruvate, and glucose. For immediate metabolic response, CB839 and UK5099 were injected separately or in combination, and OCR and ECAR measured.
Experiments were carried out on Agilent Seahorse XF96 bioanalyzer (Agilent). Briefly, wild type CD4+ cells were isolated as previous and activated for 3 days on αCD3/CD28 coated plates as previously described, or skewed to Th1 and Th17 subsets as described above. T cells were isolated and spun onto XF96 Cell-Tak (BD Bioscience, Cat #: 354240) coated plates and rested in Seahorse XF RPMI 1640 media supplemented with glutamine, sodium pyruvate, and glucose. For immediate metabolic response, 1 μM CB839 and 5 μM UK5099 (Cat #: PZ0160-5MG) were injected separately or in combination, and OCR and ECAR measured. For activation response, 1 uM CB839 was injected into IL-7 maintained naïve CD4+ T cells in seahorse medium and allowed to incubate for 20 minutes, followed by soluble αCD3/CD28 injection.

Th17 cells = assay: CD4 T cells in Th17 skewing conditions, flow cytometry
Th1 cells = assay: CD4 T cells in Th1 skewing conditions, flow cytometry
cGVHD mice = assay: In vivo chronic graft versus host disease (cGVHD) treatment; design: species or system mouse; details: treatment Day 28-56 after transplant; for pulmonary function: DON 1.6 mg/kg EOD IP, metformin 150 mg/kg daily IP
Description: Induction of Graft vs Host Disease (cGVHD) was performed as described elsewhere (see, e.g., Panoskaltsis-Mortari et al., 2007 Am J Respir Crit Care Med. 176(7):713-723). Briefly, mice were lethally irradiated the day before bone marrow (BM) transplant. Mice were dosed with cyclophosphamide (Cytoxan, Bristol Myers Squibb, Seattle Wash.) at 120 mg/kg/day on days −3 and −2. Recipient irradiated mice were transplanted via caudal vein with 10×10^6 T-cell depleted allogeneic marrow with 73.5×10^3 purified splenic T cells from WT or GLS KO mice, or control (no CD4+ T cells). Mice were assessed for lung elasticity, resistance, and compliance at Day 28 by whole body plethysmography using the Flexivent system (Scireq, Montreal, PQ, Canada). Histological assessment of GVHD was assessed as described elsewhere (see, e.g., Blazar et al., 1998 Blood 92(10):3949-3959).
6-Diazo-5-Oxo-L-Norleucine (DON) was administered to mice conditioned with cyclophosphamide (Cytoxan, Bristol Myers Squibb, Seattle Wash.) and total body irradiation.
To determine if inhibiting GLS can improve cGVHD, DON (with or without metformin) was administered to mice that were transplanted with WT T cell depleted bone marrow with WT purified splenic T cells beginning on day 28 after transplant.

[1] = Th17, CB839 + cell-permeable α-KG analog
[2] = Th1, CB839 + 1.5 mM cell-permeable α-KG analog

SMILES: N#C/C(=C\c1cn(-c2ccccc2)c2ccccc12)C(=O)O [UK5099]
- oxygen consumption (T cell respiration) (stimulated T cells): neither UK5099 nor CB839 were sufficient on their own to reduce T cell respiration; also recorded: neither UK5099 nor CB839 were sufficient to reduce T cell respiration alone

SMILES: CCOC(=O)CCNc1cc(N2CCc3ccccc3CC2)nc(-c2ccccn2)n1 [GSKJ4]
- cytokine production (Th17 cells; Th17, day five, JMJD3 inhibitor): increased cytokine production in Th1 but not Th17 cells
- cytokine production (Th1 cells; Th1, day five, JMJD3 inhibitor): increased cytokine production

SMILES: [N-]=[N+]=CC(=O)CC[C@H](N)C(=O)O [DON, 6-Diazo-5-Oxo-L-Norleucine]
- GC B cell frequency (cGVHD mice): decreased GC B cell frequency; also recorded: decrease GC B cell frequencies; also recorded: reduced GC B cells
- TFH frequency (cGVHD mice): increased TFH frequency
- TFR frequencies (cGVHD mice): increased TFR frequencies
- TFR:TFH ratios (cGVHD mice): improved TFR:TFH ratios
- percentage of lymphocytes (cGVHD mice): reduced the percentage of lymphocytes; also recorded: reduces lymphocytes
- pulmonary function (cGVHD mice): improve pulmonary functions

SMILES: CC(=O)N[C@@H](CS)C(=O)O [NAC, N-acetyl cysteine]
- H3K27 trimethylation (Th17 cells; GLS-deficient (CB839) Th17 cells + NAC): restored
- expression of IL17 (Th17 cells; Th17, NAC alone): modestly reduced
- expression of RORγt (Th17 cells; Th17, NAC alone): modestly reduced
- expression of RORγt (Th17 cells; Th17, NAC combined with CB839): partially restored to control levels
- production of IL17 (Th17 cells; Th17, NAC combined with CB839): partially restored to control levels
- IFNγ secretion (Th1 cells; Th1, NAC alone): decreasing IFNγ secretion
- production of IFNγ (Th1 cells; Th1, NAC combined with CB839): did not, however, increase
- H3K27 trimethylation (Th1 cells; Th1 cells + NAC): no effect

SMILES: COC(=O)CCC(=O)C(=O)OC [DMaKG, dimethyl-2-oxoglutarate]
- IL17 production of CB839-treated Th17 cells (Th17 cells; [1]): unchanged or further decreased
- RORγt of CB839-treated Th17 cells (Th17 cells; [1]): unchanged or further decreased
- IFNγ production of CB839-treated Th1 cells (Th1 cells; [2]): rectified
- Tbet expression of CB839-treated Th1 cells (Th1 cells; [2]): rectified
- IFNγ production of CB839-treated Th1 cells (Th1 cells; Th1, CB839 + 1.5 mM cell-permeable α-KG analog, listed as DM2OG): reduced IFNγ production of CB839-treated to control levels
- cytokine production in Th1 cells, by itself (Th1 cells; Th1, α-KG analog alone): did not reduce cytokine production

SMILES: CO[C@H]1C[C@@H]2CC[C@@H](C)[C@@](O)(O2)C(=O)C(=O)N2CCCC[C@H]2C(=O)O[C@H]([C@H](C)C[C@@H]2CC[C@@H](O)[C@H](OC)C2)CC(=O)[C@H](C)/C=C(\C)[C@@H](O)[C@@H](OC)C(=O)[C@H](C)C[C@H](C)/C=C/C=C/C=C/1C [rapamycin]
- effect on control Th1 cells (Th1 cells; rapamycin added on day 3 after activation): no effect

SMILES: CN(C)C(=N)N=C(N)N [metformin]
- pulmonary function (cGVHD mice): improved pulmonary function
